Test results taken from patent US9670210B2, “Cyclopropylamines as LSD1 inhibitors” (Incyte Corporation, priority 2014, dated 2017).

Target: LSD-1 enzyme (Homo sapiens (Human), UniProt O60341)
Description: LSD1 Histone Demethylase Biochemical Assay
LANCE LSD1/KDM1A demethylase assay-10 μL of 1 nM LSD-1 enzyme (ENZO BML-SE544-0050) in the assay buffer (50 mM Tris, pH 7.5, 0.01% Tween-20, 25 mM NaCl, 5 mM DTT) were preincubated for 1 hour at 25° C. with 0.8 μL compound/DMSO dotted in black 384 well polystyrene plates. […] After stopping the reactions plates were incubated for 30 minutes and read on a PHERAstar FS plate reader (BMG Labtech).

SMILES | IC50 [nM]
O=C(O)C1(CN2CCC(CN[C@@H]3C[C@H]3c3ccccc3)(COCc3ccccc3)CC2)CCC1 [Example 73, 1-{[4-[(benzyloxy)methyl]-4-({[(1R,2S)-2-phenylcyclopropyl]amino}methyl)piperidin-1-yl]methyl}cyclobutanecarboxylic acid] | < 100
N#Cc1ccc(CC2(CN[C@@H]3C[C@H]3c3ccccc3)CCN(CC3(C(=O)O)CC3)CC2)c(F)c1 [Example 74, 1-{[4-(4-cyano-2-fluorobenzyl)-4-({[(1R,2S)-2-phenylcyclopropyl]amino}methyl)piperidin-1-yl]methyl}cyclopropanecarboxylic acid] | < 100
O=C(O)C1(CN2CCC(CN[C@@H]3C[C@H]3c3ccccc3)(COc3ccccc3F)CC2)CC1 [Example 75, 1-{[4-[(2-fluorophenoxy)methyl]-4-({[(1R,2S)-2-phenylcyclopropyl]amino}methyl)piperidin-1-yl]methyl}cyclopropanecarboxylic acid] | < 100
O=C(O)C1(CN2CCC(CN[C@@H]3C[C@H]3c3ccccc3)(COc3ccccc3F)CC2)CCC1 [Example 76, 1-{[4-[(2-fluorophenoxy)methyl]-4-({[(1R,2S)-2-phenylcyclopropyl]amino}methyl)piperidin-1-yl]methyl}cyclobutanecarboxylic acid] | < 100
O=C(O)C1(CN2CCC(CN[C@@H]3C[C@H]3c3ccccc3)(COc3cccc(F)c3)CC2)CC1 [Example 77, 1-{[4-[(3-fluorophenoxy)methyl]-4-({[(1R,2S)-2-phenylcyclopropyl]amino}methyl)piperidin-1-yl]methyl}cyclopropanecarboxylic acid] | < 100
O=C(O)C1(CN2CCC(CN[C@@H]3C[C@H]3c3ccccc3)(COc3cccc(F)c3)CC2)CCC1 [Example 78, 1-{[4-[(3-fluorophenoxy)methyl]-4-({[(1R,2S)-2-phenylcyclopropyl]amino}methyl)piperidin-1-yl]methyl}cyclobutanecarboxylic acid] | < 100
N#Cc1ccccc1OCC1(CN[C@@H]2C[C@H]2c2ccccc2)CCN(CC2(C(=O)O)CC2)CC1 [Example 79, 1-{[4-[(2-cyanophenoxy)methyl]-4-({[(1R,2S)-2-phenylcyclopropyl]amino}methyl)piperidin-1-yl]methyl}cyclopropanecarboxylic acid] | < 100
N#Cc1cccc(OCC2(CN[C@@H]3C[C@H]3c3ccccc3)CCN(CC3(C(=O)O)CC3)CC2)c1 [Example 80, 1-{[4-[(3-cyanophenoxy)methyl]-4-({[(1R,2S)-2-phenylcyclopropyl]amino}methyl)piperidin-1-yl]methyl}cyclopropanecarboxylic acid] | < 100
N#Cc1ccc(OCC2(CN[C@@H]3C[C@H]3c3ccccc3)CCN(CC3(C(=O)O)CC3)CC2)cc1 [Example 81, 1-{[4-[(4-cyanophenoxy)methyl]-4-({[(1R,2S)-2-phenylcyclopropyl]amino}methyl)piperidin-1-yl]methyl}cyclopropanecarboxylic acid] | < 100
N#Cc1ccc(OCC2(CN[C@@H]3C[C@H]3c3ccccc3)CCN(CC3(C(=O)O)CC3)CC2)c(F)c1 [Example 82, 1-{[4-[(4-cyano-2-fluorophenoxy)methyl]-4-({[(1R,2S)-2-phenylcyclopropyl]amino}methyl)piperidin-1-yl]methyl}cyclopropanecarboxylic acid] | < 100
N#Cc1ccccc1OCC1(CN[C@@H]2C[C@H]2c2ccccc2)CCN(CC2(C(=O)O)CCC2)CC1 [Example 83, 1-{[4-[(2-cyanophenoxy)methyl]-4-({[(1R,2S)-2-phenylcyclopropyl]amino}methyl)piperidin-1-yl]methyl}cyclobutanecarboxylic acid] | < 100
N#Cc1cccc(OCC2(CN[C@@H]3C[C@H]3c3ccccc3)CCN(CC3(C(=O)O)CCC3)CC2)c1 [Example 84, 1-{[4-[(3-cyanophenoxy)methyl]-4-({[(1R,2S)-2-phenylcyclopropyl]amino}methyl)piperidin-1-yl]methyl}cyclobutanecarboxylic acid] | < 100
N#Cc1ccc(OCC2(CN[C@@H]3C[C@H]3c3ccccc3)CCN(CC3(C(=O)O)CCC3)CC2)cc1 [Example 85, 1-{[4-[(4-cyanophenoxy)methyl]-4-({[(1R,2S)-2-phenylcyclopropyl]amino}methyl)piperidin-1-yl]methyl}cyclobutanecarboxylic acid] | < 100
N#Cc1ccc(OCC2(CN[C@@H]3C[C@H]3c3ccccc3)CCN(CC3(C(=O)O)CCC3)CC2)c(F)c1 [Example 86, 1-{[4-[(4-cyano-2-fluorophenoxy)methyl]-4-({[(1R,2S)-2-phenylcyclopropyl]amino}methyl)piperidin-1-yl]methyl}cyclobutanecarboxylic acid] | < 100
O=C(O)C1(CN2CCC(CN[C@@H]3C[C@H]3c3ccccc3)(COc3ccc(F)cn3)CC2)CC1 [Example 87, 1-{[4-{[(5-fluoropyridin-2-yl)oxy]methyl}-4-({[(1R,2S)-2-phenylcyclopropyl]amino}methyl)piperidin-1-yl]methyl}cyclopropanecarboxylic acid] | < 100
O=C(O)C1(CN2CCC(CN[C@@H]3C[C@H]3c3ccccc3)(COc3ncc(F)cn3)CC2)CC1 [Example 88, 1-{[4-{[(5-fluoropyrimidin-2-yl)oxy]methyl}-4-({[(1R,2S)-2-phenylcyclopropyl]amino}methyl)piperidin-1-yl]methyl}cyclopropanecarboxylic acid] | < 100
O=C(O)C1(CN2CCC(CN[C@@H]3C[C@H]3c3ccccc3)(COc3ncccc3F)CC2)CC1 [Example 89, 1-{[4-{[(3-fluoropyridin-2-yl)oxy]methyl}-4-({[(1R,2S)-2-phenylcyclopropyl]amino}methyl)piperidin-1-yl]methyl}cyclopropanecarboxylic acid] | < 100
CNC(=O)c1ccc(OCC2(CN[C@@H]3C[C@H]3c3ccccc3)CCN(CC3(C(=O)O)CC3)CC2)cn1 [Example 90, 1-{[4-[({6-[(methylamino)carbonyl]pyridin-3-yl}oxy)methyl]-4-({[(1R,2S)-2-phenylcyclopropyl]amino}methyl)piperidin-1-yl]methyl}cyclopropanecarboxylic acid] | < 100
CNC(=O)c1cccc(OCC2(CN[C@@H]3C[C@H]3c3ccccc3)CCN(CC3(C(=O)O)CC3)CC2)n1 [Example 91, 1-{[4-[({6-[(methylamino)carbonyl]pyridin-2-yl}oxy)methyl]-4-({[(1R,2S)-2-phenylcyclopropyl]amino}methyl)piperidin-1-yl]methyl}cyclopropanecarboxylic acid] | < 100
O=C(O)C1(CN2CCC(CN[C@@H]3C[C@H]3c3ccccc3)(COCC3CCC3)CC2)CCC1 [Example 93, 1-{[4-[(cyclobutylmethoxy)methyl]-4-({[(1R,2S)-2-phenylcyclopropyl]amino}methyl)piperidin-1-yl]methyl}cyclobutanecarboxylic acid] | < 100
O=C(O)C1(CN2CCC(CN[C@@H]3C[C@H]3c3ccccc3)(COC3CCCCC3)CC2)CC1 [Example 94, 1-{[4-[(cyclohexyloxy)methyl]-4-({[(1R,2S)-2-phenylcyclopropyl]amino}methyl)piperidin-1-yl]methyl}cyclopropanecarboxylic acid] | < 100
